Source: patent publication US20240383953A1, “NOVEL NAN[…] NANOG PRION-LIKE REPEATS” (BAYLOR COLLEGE OF MEDICINE, priority 2021, published 2024)
Residues, ends and D or L forms follow the SMILES beside them.

Experiment: WR peptide solubility (supernatant to pellet ratio after centrifugation)
Type: physicochemical
Conditions: 0.1 and 0.2 mg/mL
Procedure: FIGS. 7A-7H provide data and illustrations related to the fibrillation propensities of NANOG WR-derived peptides. FIG. 7A illustrates NANOG domain organization and the human and mouse NANOG WR-derived peptides used in Example 2. […] Right panels show aggregation kinetics for peptides 1-3 w (top) and 1-4 w (bottom) after 1 min equilibration. Similar results were obtained from two independent experiments. […] Similar results were obtained from two independent experiments. […] Similar results were obtained from two independent experiments. […] Similar results were obtained from two independent preparations. […]
Amino acids of the synthesized peptides were classified into aromatic, polar, charged and structure breakers (FIG. 7B). Applicant observed a striking degree of correlation between amino acid type distribution, and the peptide's solubilities and aggregation propensities, as monitored by Thioflavin T (ThT, amyloid binding dye) aggregation kinetics assay (FIGS. 7B-7D). Formation of β-sheet fibrils were confirmed by CD spectroscopy and Transmission Electron Microscopy. Hydrophobic/aromatic residues as well as polar residues such as Gln and Asn are commonly found in amyloid or prion-like domains. On the other hand, charged and ‘structure breaker’ residues such as Gly and Pro contribute to the peptide's higher solubility. […] Aggregation kinetics was rapid; 1-4w reached maximal ThT fluorescence within 2-3 min and 1-3w ˜20 min (FIG. 7D).

SMILES | peptide solubility
C[C@@H](O)[C@H](NC(=O)[C@H](CO)NC(=O)[C@H](CC(N)=O)NC(=O)[C@H](CC(N)=O)NC(=O)[C@H](Cc1c[nH]c2ccccc12)NC(=O)[C@@H](NC(=O)[C@H](CCC(N)=O)NC(=O)[C@H](CC(N)=O)NC(=O)[C@H](CO)NC(=O)[C@@H](N)Cc1c[nH]c2ccccc12)[C@@H](C)O)C(=O)N[C@@H](CCCCN)C(=O)O [1-2w] (H-WSNQTWNNSTK-OH; N-terminus and C-terminus assumed) | very soluble
C[C@@H](O)[C@H](NC(=O)[C@H](CCC(N)=O)NC(=O)[C@H](CC(N)=O)NC(=O)[C@H](CO)NC(=O)[C@H](Cc1c[nH]c2ccccc12)NC(=O)[C@@H](NC(=O)[C@H](CO)NC(=O)[C@H](CC(N)=O)NC(=O)[C@H](CC(N)=O)NC(=O)[C@H](Cc1c[nH]c2ccccc12)NC(=O)[C@@H](NC(=O)[C@H](CCC(N)=O)NC(=O)[C@H](CC(N)=O)NC(=O)[C@H](CO)NC(=O)[C@@H](N)Cc1c[nH]c2ccccc12)[C@@H](C)O)[C@@H](C)O)C(=O)N[C@@H](CCCNC(=N)N)C(=O)N[C@@H](CCCNC(=N)N)C(=O)N[C@@H](CCCNC(=N)N)C(=O)N[C@@H](CCCNC(=N)N)C(=O)N[C@@H](CCCNC(=N)N)C(=O)N[C@@H](CCCNC(=N)N)C(=O)N[C@@H](CCCCN)C(=O)N[C@@H](CCCCN)C(=O)N[C@@H](CS)C(=O)O [1-3wRRK] (H-WSNQTWNNSTWSNQTRRRRRRKKC-OH; N-terminus and C-terminus assumed) | very soluble
C[C@@H](O)[C@H](NC(=O)[C@H](CCC(N)=O)NC(=O)[C@H](CC(N)=O)NC(=O)[C@H](CO)NC(=O)[C@H](Cc1c[nH]c2ccccc12)NC(=O)[C@@H](NC(=O)[C@H](CO)NC(=O)[C@H](CC(N)=O)NC(=O)[C@H](CC(N)=O)NC(=O)[C@H](Cc1c[nH]c2ccccc12)NC(=O)[C@@H](NC(=O)[C@H](CCC(N)=O)NC(=O)[C@H](CC(N)=O)NC(=O)[C@H](CO)NC(=O)[C@@H](N)Cc1c[nH]c2ccccc12)[C@@H](C)O)[C@@H](C)O)C(=O)N[C@@H](CCCCN)C(=O)O [1-3w] (H-WSNQTWNNSTWSNQTK-OH; N-terminus and C-terminus assumed) | more insoluble
CC[C@H](C)[C@H](NC(=O)[C@H](CC(N)=O)NC(=O)[C@H](CCC(N)=O)NC(=O)[C@@H](NC(=O)[C@H](CCC(N)=O)NC(=O)[C@H](CC(N)=O)NC(=O)[C@H](CO)NC(=O)[C@H](Cc1c[nH]c2ccccc12)NC(=O)[C@@H](NC(=O)[C@H](CO)NC(=O)[C@H](CC(N)=O)NC(=O)[C@H](CC(N)=O)NC(=O)[C@H](Cc1c[nH]c2ccccc12)NC(=O)[C@@H](NC(=O)[C@H](CCC(N)=O)NC(=O)[C@H](CC(N)=O)NC(=O)[C@H](CO)NC(=O)[C@@H](N)Cc1c[nH]c2ccccc12)[C@@H](C)O)[C@@H](C)O)[C@@H](C)O)C(=O)N[C@@H](CCC(N)=O)C(=O)N[C@@H](CO)C(=O)N[C@@H](Cc1c[nH]c2ccccc12)C(=O)N[C@@H](CO)C(=O)N[C@@H](CC(N)=O)C(=O)N[C@@H](Cc1c[nH]cn1)C(=O)N[C@@H](CO)C(=O)N[C@@H](CCCCN)C(=O)O [1-4w] (H-WSNQTWNNSTWSNQTQNIQSWSNHSK-OH; N-terminus and C-terminus assumed) | more insoluble
CC[C@H](C)[C@H](NC(=O)[C@H](CC(N)=O)NC(=O)[C@H](CCC(N)=O)NC(=O)[C@@H](NC(=O)[C@H](CCC(N)=O)NC(=O)[C@H](CC(N)=O)NC(=O)[C@H](CO)NC(=O)[C@H](C)NC(=O)[C@@H](NC(=O)[C@H](CO)NC(=O)[C@H](CC(N)=O)NC(=O)[C@H](CC(N)=O)NC(=O)[C@H](C)NC(=O)[C@@H](NC(=O)[C@H](CCC(N)=O)NC(=O)[C@H](CC(N)=O)NC(=O)[C@H](CO)NC(=O)[C@H](C)N)[C@@H](C)O)[C@@H](C)O)[C@@H](C)O)C(=O)N[C@@H](CCC(N)=O)C(=O)N[C@@H](CO)C(=O)N[C@@H](Cc1c[nH]c2ccccc12)C(=O)N[C@@H](CO)C(=O)N[C@@H](CC(N)=O)C(=O)N[C@@H](Cc1c[nH]cn1)C(=O)N[C@@H](CO)C(=O)N[C@@H](CCCCN)C(=O)O [1-4wa] (H-ASNQTANNSTASNQTQNIQSWSNHSK-OH; N-terminus and C-terminus assumed) | increased solubility
